pIC50: −log10 of the molar value.
These compounds were tested on Aβ42 (human neuroglioma H4 cells expressing human wild type APP751) (assay: In vitro cell screening assay with sandwich ELISA quantification of Aβ42 peptide). Conditions: H4 cells stably expressing human wild type APP751; Pro293 chemically defined medium; compounds 0.003-10 μM; incubated overnight (16-18 h); supernatant Aβ42 by sandwich ELISA; normalized to DMSO and DAPT; read-out: Aβ42 H4 Prot Fre IC50.
Format: cell-based
Summary of the method: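 H4 neuroglioma cells stably expressing human wild-type APP751 were treated in Pro293 medium with compounds (0.003-10 μM, 0.33% DMSO) for 16-18 h at 37° C. Secreted Aβ42 measured by sandwich ELISA (C-terminal capture, 4G8-HRP detection, TMB, 450 nm). IC50 by variable-slope sigmoidal regression on percent of DMSO control.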
`COc1cc(Nc2ncc3c(n2)N(C)[C@H](c2ccccc2)CO3)ccc1-c1ccnc(C)c1` [Example 22B, (R)—N-(3-methoxy-4-(2-methylpyridin-4-yl)phenyl)-8-methyl-7-phenyl-7,8-dihydro-6H-pyrimido[5,4-b][1,4]oxazin-2-amine] gave a pIC50 of 6.77. With `COC[C@H]1COc2cnc(Nc3ccc(-n4cnc(C)c4)c(OC)c3)nc2N1C` [Example 111] the pIC50 was 6.92. `COC[C@H]1COc2cnc(Nc3ccc(-n4cnc(C)c4)c(F)c3)nc2N1C` [Example 113] gave a pIC50 of 6.48. `Cc1cn(-c2ccc(Nc3ncc4c(n3)N(C)[C@@H](CO)CO4)cc2F)cn1` [Example 170, (S)-(2-((3-fluoro-4-(4-methyl-1H-imidazol-1-yl)phenyl)amino)-8-methyl-7,8-dihydro-6H-pyrimido [5,4-b] [1, 4]oxazin-7-yl) methanol] was tested, and the pIC50 was 5.91. Compound `COC[C@@H]1COc2cnc(Nc3ccc(-n4cnc(C)c4)c(OC)c3)nc2N1C` [Example 176] has a pIC50 of 6.43. Work on `COc1cc(Nc2ncc3c(n2)N(C)[C@H](CO)CO3)ccc1-n1cnc(C)c1` [Example 177, (R)-(2-((3-methoxy-4-(4-methyl-1H-imidazol-1-yl)phenyl)amino)-8-methyl-7,8-dihydro-6H-pyrimido [5,4-b] [1, 4]oxazin-7-yl) methanol] yielded a pIC50 of 6.58. For `COc1cc(Nc2ncc3c(n2)N(C)[C@@H](COc2ccccc2)CO3)ccc1-n1cnc(C)c1` [Example 200], the pIC50 was 7.52. `COc1cc(Nc2ncc3c(n2)N(C)[C@H](COc2ccccc2)CO3)ccc1-n1cnc(C)c1` [Example 201] gave a pIC50 of 6.84. `COc1cc(Nc2ncc3c(n2)N(C)[C@@H](CC2CC2)CO3)ccc1-n1cnc(C)c1` [Example 217] was tested, and the pIC50 was 7.28. With `COc1cc(Nc2ncc3c(n2)N(C)[C@@H](CC2CC2)CO3)cnc1-n1cnc(C)c1` [Example 218] the pIC50 was 7.41. Compound `COc1cc(Nc2ncc3c(n2)N(C)[C@@H](C2CC2)CO3)ccc1-n1cnc(C)c1` [Example 224] has a pIC50 of 7.66. With `COc1cc(Nc2ncc3c(n2)N(C)[C@@H](C2CC2)CO3)cnc1-n1cnc(C)c1` [Example 225] the pIC50 was 7.48. `COc1cc(Nc2ncc3c(n2)N(C)[C@@H](C2CCC2)CO3)ccc1-n1cnc(C)c1` [Example 227] was tested, and the pIC50 was 7.72. With `COc1cc(Nc2ncc3c(n2)N(C)[C@@H](C2CCC2)CO3)cnc1-n1cnc(C)c1` [Example 235] the pIC50 was 7.77. `COc1cc(Nc2ncc3c(n2)N(C)[C@@H](C(C)(C)C)CO3)ccc1-n1cnc(C)c1` [Example 240] showed a pIC50 of 7.68. `COc1cc(Nc2ncc3c(n2)N(C)[C@@H](C(C)(C)C)CO3)cnc1-n1cnc(C)c1` [Example 246] showed a pIC50 of 7.62. Work on `COc1cc(Nc2ncc3c(n2)N(C)C(C)(C)CO3)ccc1-n1cnc(C)c1` [Example 254] yielded a pIC50 of 7.27. `Cc1cn(-c2ccc(Nc3ncc4c(n3)N(C)C(C)(C)CO4)cc2F)cn1` [Example 255] was tested, and the pIC50 was 6.31. `COc1cc(Nc2ncc3c(n2)N(C)C2(CC2)CO3)ccc1-n1cnc(C)c1` [Example 257] showed a pIC50 of 7.31. Work on `Cc1cn(-c2ccc(Nc3ncc4c(n3)N(C)C3(CC3)CO4)cc2F)cn1` [Example 258] yielded a pIC50 of 6.49. In the case of `COc1cc(Nc2ncc3c(n2)N(C)C2(CCCC2)CO3)cnc1-n1cnc(C)c1` [Example 259], the pIC50 was 7.14. In the case of `COc1cc(Nc2ncc3c(n2)N(C)C2(CC2)CO3)cnc1-n1cnc(C)c1` [Example 260], the pIC50 was 6.67. Work on `COc1cc(Nc2ncc3c(n2)N(C)C(C)(C)CO3)cnc1-n1cnc(C)c1` [Example 261] yielded a pIC50 of 6.86. `Cc1cn(-c2ccc(Nc3ncc4c(n3)N(C)C(C)(C)CO4)nc2)cn1` [Example 262] gave a pIC50 of less than 5.52. Compound `Cc1cn(-c2ccc(Nc3ncc4c(n3)N(C)C3(CCCC3)CO4)nc2)cn1` [Example 263] has a pIC50 of less than 5.52. `COc1cc(Nc2ncc3c(n2)N(C)C2(CCCC2)CO3)ccc1-c1cnn(C)c1` [Example 264] gave a pIC50 of 6.59. Compound `Cc1cn(-c2ccc(Nc3ncc4c(n3)N(C)C3(CC3)CO4)nc2)cn1` [Example 265] has a pIC50 of less than 5.52. In the case of `COc1cc(Nc2ncc3c(n2)N(C)C2(CCCC2)CO3)cnc1-c1cnn(C)c1` [Example 266], the pIC50 was less than 5.52. In the case of `COc1cc(Nc2ncc3c(n2)N(C)C(C)(C)CO3)ccc1-c1cnn(C)c1` [Example 267], the pIC50 was 6.09. Work on `COc1cc(Nc2ncc3c(n2)N(C)C2(CC2)CO3)cnc1-c1cnn(C)c1` [Example 268] yielded a pIC50 of 5.56. For `COc1cc(Nc2ncc3c(n2)N(C)C2(CC2)CO3)ccc1-c1cnn(C)c1` [Example 269], the pIC50 was 6.15. `COc1cc(Nc2ncc3c(n2)N(C)C(C)(C)CO3)cnc1-c1cnn(C)c1` [Example 270] gave a pIC50 of less than 5.52. `COc1cc(Nc2ncc3c(n2)N(C)C2(COC2)CO3)ccc1-n1cnc(C)c1` [Example 271] was tested, and the pIC50 was 6.44. With `COc1cc(Nc2ncc3c(n2)N(C)C2(COC2)CO3)cnc1-n1cnc(C)c1` [Example 272] the pIC50 was 6.27. With `COc1cc(Nc2ncc3c(n2)N(C)C2(CCOCC2)CO3)ccc1-n1cnc(C)c1` [Example 273] the pIC50 was 6.95. With `COc1cc(Nc2ncc3c(n2)N(C)C2(CCOCC2)CO3)cnc1-n1cnc(C)c1` [Example 274] the pIC50 was 6.53. Compound `COc1cc(Nc2ncc3c(n2)N(C)C2(CO3)CC(F)(F)C2)ccc1-n1cnc(C)c1` [Example 276] has a pIC50 of 7.25. `COc1cc(Nc2ncc3c(n2)N(C)C2(CO3)CC(F)(F)C2)ccc1-n1cnc(Cl)c1` [Example 277] showed a pIC50 of 7.01. `COc1cc(Nc2ncc3c(n2)N(C)C2(CO3)CC(F)(F)C2)cnc1-n1cnc(C)c1` [Example 278] was tested, and the pIC50 was 7.04. `Cc1cn(-c2ccc(Nc3ncc4c(n3)N(C)C3(CCCC3)CO4)cc2F)cn1` [Example 279] gave a pIC50 of 6.60. Work on `COc1cc(Nc2ncc3c(n2)N2CCC[C@@]2(C)CO3)ccc1-n1cnc(C)c1` [Example 291, (S)-N-(3-methoxy-4-(4-methyl-1H-imidazol-1-yl)phenyl)-6a-methyl-6a, 7,8,9-tetrahydro-6H-pyrimido [5,4-b] pyrrolo [1,2-d] [1, 4] oxazin-2-amine] yielded a pIC50 of 6.88. `Cc1cn(-c2ccc(Nc3ncc4c(n3)N3CCC[C@@]3(C)CO4)cc2F)cn1` [Example 292, (S)-N-(3-fluoro-4-(4-methyl-1H-imidazol-1-yl)phenyl)-6a-methyl-6a, 7,8,9-tetrahydro-6H-pyrimido [5,4-b] pyrrolo [1,2-d] [1, 4] oxazin-2-amine] gave a pIC50 of 6.36. Work on `Cc1cn(-c2ccc(Nc3ncc4c(n3)N3CCC[C@]3(C)CO4)cc2F)cn1` [Example 293, (R)-N-(3-fluoro-4-(4-methyl-1H-imidazol-1-yl)phenyl)-6a-methyl-6a, 7,8,9-tetrahydro-6H-pyrimido [5,4-b] pyrrolo [1,2-d] [1, 4] oxazin-2-amine] yielded a pIC50 of 6.56. `COc1cc(Nc2ncc3c(n2)N2CCC[C@]2(C)CO3)ccc1-n1cnc(C)c1` [Example 294, (R)-N-(3-methoxy-4-(4-methyl-1H-imidazol-1-yl)phenyl)-6a-methyl-6a, 7,8,9-tetrahydro-6H-pyrimido [5,4-b] pyrrolo [1,2-d] [1, 4] oxazin-2-amine] gave a pIC50 of 7.10. For `COc1cc(Nc2ncc3c(n2)N2CCOC[C@H]2CO3)ccc1-n1cnc(C)c1` [Example 295], the pIC50 was 6.30. In the case of `COc1cc(Nc2ncc3c(n2)N2CCOC[C@@H]2CO3)ccc1-n1cnc(C)c1` [Example 296], the pIC50 was 6.12. `COc1cc(Nc2ncc3c(n2)N2CC(F)(F)C[C@H]2CO3)ccc1-n1cnc(C)c1` [Example 297, (S)-8,8-difluoro-N-(3-methoxy-4-(4-methyl-1H-imidazol-1-yl)phenyl)-6a, 7,8,9-tetrahydro-6H-pyrimido [5,4-b] pyrrolo [1,2-d] [1, 4] oxazin-2-amine] was tested, and the pIC50 was 7.00. `COc1cc(Nc2ncc3c(n2)N2CC(F)(F)C[C@H]2CO3)cnc1-n1cnc(C)c1` [Example 298, (S)-8,8-difluoro-N-(5-methoxy-6-(4-methyl-1H-imidazol-1-yl)pyridin-3-yl)-6a, 7,8,9-tetrahydro-6H-pyrimido [5,4-b] pyrrolo [1,2-d] [1, 4] oxazin-2-amine] was tested, and the pIC50 was 6.75. For `Cc1cn(-c2ccc(Nc3ncc4c(n3)N3CCOC[C@H]3CO4)cc2F)cn1` [Example 299], the pIC50 was less than 5.52. `Cc1cn(-c2ccc(Nc3ncc4c(n3)N3CCOC[C@@H]3CO4)cc2F)cn1` [Example 300] showed a pIC50 of 6.11. For `COc1cc(Nc2ncc3c(n2)N2CC(F)(F)C[C@@H]2CO3)ccc1-n1cnc(C)c1` [Example 303, (R)-8,8-difluoro-N-(3-methoxy-4-(4-methyl-1H-imidazol-1-yl)phenyl)-6a, 7,8,9-tetrahydro-6H-pyrimido [5,4-b] pyrrolo [1,2-d] [1, 4] oxazin-2-amine], the pIC50 was 6.88.

From patent US9771378B2 (Denali Therapeutics, Inc., priority 2014, dated 2017)
